From article PMC11521309, “A novel 4-aminoquinoline chemotype with multistage antimalarial activity and lack of cross-resistance with PfCRT and PfMDR1 mutants” (PLOS Pathogens, 2024)
Where “and” joins values, the source holds several entries; their conditions need not be identical. Identical values can stand only once. Like-named read-outs stand apart in the source and are kept apart here.

Columns and labels:
[1] = system: P. berghei ookinete formation; assay: In vitro inhibition of ookinete formation (nLuc conversion assay), 24 h; assay type: cell-based, Plasmodium berghei; conditions: Plasmodium berghei; for activity at 10 µM: read-out: % Inhibition of ookinete conversion, 10 uM; for activity at 25 µM: read-out: % Inhibition of ookinete conversion, 25 uM; for activity at 100 µM: read-out: % Inhibition of ookinete conversion, 100 uM
Protocol: To measure the inhibition of gamete conversion into ookinetes, a mutant luciferase-expressing P. berghei line (nLuc) was intraperitoneally injected into BALB/c mice. After 3–4 days, gametocyte-carrying blood samples were collected. In vitro compound testing was carried out by exposing 4 μL of infected blood mixed with 80 μL of culture medium (RPMI-1640 supplemented with 25 mM HEPES, 50 mg/L hypoxanthine, and 1% penicillin/streptomycin/neomycin at pH 8.3) to a range of drug concentrations for 24 hours at 21°C. Following the incubation, 20 μL of nLuc substrate (Nano-Glo Luciferase Assay System, Promega) was added to each well, and luminescence was measured in a luminometer. Increased light emission correlated with nLuc production and subsequent luciferase activity due to in vitro fertilization and ookinete conversion, as luciferase expression in this parasite line is regulated by the CTRP promoter that is ookinete-specific. Conversion inhibition was calculated as the percentage of luciferase activity of drug-exposed wells relative to untreated ones, from which IC50 values were interpolated.

[2] = system: Hz formation in ABS P. falciparum 3D7 parasites; assay: Cellular heme fractionation assay; assay type: cell-based, Plasmodium falciparum
Protocol: A heme fractionation assay was used to measure the inhibition of Hz formation in cultured ABS P. falciparum 3D7 parasites as previously described. […] Late trophozoites were harvested after 32 hours of incubation by lysing RBCs with 0.05% saponin followed by multiple washes with 1 × PBS (pH 7.5) to remove any residual traces of hemoglobin. The parasite pellet was resuspended in PBS and the total number of trophozoites isolated was quantified using flow cytometry. Contents of the trophozoite pellet were released by hypotonic lysis and sonication. After centrifugation, treatments with HEPES buffer (pH 7.4), sodium dodecyl sulfate, pyridine, and NaOH, allowed us to separate the fractions corresponding to the different heme species of interest. A microplate reader was employed to measure the UV-visible spectrum of each heme fraction as a Fe(III)heme-pyridine complex. Fractions of undigested hemoglobin, “free” heme, and Hz were quantified using a heme standard curve based on the mass of each heme-Fe species per mature trophozoite (fg/cell), obtained by dividing the total amount of each heme species by the corresponding number of parasites in that fraction as determined by flow cytometry. Statistical comparisons and analyses for trends employed Students’ t-tests (GraphPad Prism version 9).

[3] = single replicates, Control = 100
[4] = 0.5x IC50, 32 h, single replicates
[5] = 0.5–3.0 × IC50 vs untreated control
[6] = 1x IC50, 32 h, single replicates
[7] = 2x IC50, 32 h, single replicates
[8] = 2.5x IC50, 32 h, single replicates
[9] = 3x IC50, 32 h, single replicates

CCN(CC)CCCC(C)Nc1ccnc2cc(Cl)ccc12 (stereo not drawn) [CQ, chloroquine]
activity at 10 µM ([1]; Mean, Control mean 96.63): 43.2% | activity at 10 µM [1, 3]: 38.1% | activity at 25 µM ([1]; Mean, Control mean 96.63): 14.4% | activity at 25 µM [1, 3]: 12.7% | activity at 50 µM ([1]; read-out: % Inhibition of ookinete conversion, 50 uM, Mean, Control mean 96.63): 0.49% | activity at 100 µM ([1]; Mean, Control mean 96.63): 0.22% | activity at 100 µM [1, 3]: 0.2% | inhibition at 10 µM ([1]; read-out: inhibition of zygote conversion into ookinetes): 56.7% | %Hb ([2]; 0.5x IC50, 32 h, Mean): 3.19% | %Hemozoin ([2]; 0.5x IC50, 32 h, Mean): 88.03% | Hb Fe (fg/troph) ([2]; 0.5x IC50, 32 h, Mean): 1.79 fg/troph | Heme Fe (fg/troph) ([2]; 0.5x IC50, 32 h, Mean): 4.89 fg/troph | Hemozoin Fe (fg/troph) ([2]; 0.5x IC50, 32 h, Mean): 48.61 fg/troph | Total Fe (fg/troph) ([2]; 0.5x IC50, 32 h, Mean): 57.03 fg/troph | %Hb [2, 4]: 3.1577% and 3.5151% and 3.0401% and 3.0419% | %Heme [2, 4]: 10.1984% and 8.3472% and 8.0733% and 8.4973% | %Hemozoin [2, 4]: 86.6439% and 88.1377% and 88.8867% and 88.4608% | Hb Fe (fg/troph) [2, 4]: 1.6883 fg/troph and 1.9552 fg/troph and 1.7265 fg/troph and 1.8935 fg/troph | Heme Fe (fg/troph) [2, 4]: 5.4527 fg/troph and 4.6429 fg/troph and 4.5850 fg/troph and 5.2894 fg/troph | Hemozoin Fe (fg/troph) [2, 4]: 46.3251 fg/troph and 49.0239 fg/troph and 50.4811 fg/troph and 55.0658 fg/troph | Total Fe (fg/troph) [2, 4]: 53.47 fg/troph and 55.62 fg/troph and 56.79 fg/troph and 62.25 fg/troph | effect on Hz levels [2, 5]: Hz levels only decreased significantly from 2 × IC50 | effect on undigested Hb [2, 5]: significant at 2.5 × IC50 of CQ only | effect on “free” heme [2, 5]: significant increase in “free” heme starting at 0.5 × IC50 | %Hb ([2]; 1x IC50, 32 h, Mean): 3.14% | %Hemozoin ([2]; 1x IC50, 32 h, Mean): 88.13% | Hb Fe (fg/troph) ([2]; 1x IC50, 32 h, Mean): 1.74 fg/troph | Heme Fe (fg/troph) ([2]; 1x IC50, 32 h, Mean): 5.05 fg/troph | Hemozoin Fe (fg/troph) ([2]; 1x IC50, 32 h, Mean): 48.59 fg/troph | Total Fe (fg/troph) ([2]; 1x IC50, 32 h, Mean): 56.08 fg/troph | %Hb [2, 6]: 2.4393% and 3.8543% and 3.1547% and 3.1175% | %Heme [2, 6]: 10.2450% and 7.2686% and 7.4306% | %Hemozoin [2, 6]: 87.3158% and 86.1923% and 89.5767% and 89.4519% | Hb Fe (fg/troph) [2, 6]: 1.3251 fg/troph and 2.0733 fg/troph and 1.8303 fg/troph and 1.8137 fg/troph | Heme Fe (fg/troph) [2, 6]: 5.5654 fg/troph and 5.3541 fg/troph and 4.2171 fg/troph and 4.3229 fg/troph | Hemozoin Fe (fg/troph) [2, 6]: 47.4331 fg/troph and 46.3642 fg/troph and 51.9709 fg/troph and 52.0405 fg/troph | Total Fe (fg/troph) [2, 6]: 54.32 fg/troph and 53.79 fg/troph and 58.02 fg/troph and 58.18 fg/troph | %Hb ([2]; 2x IC50, 32 h, Mean): 3.51% | %Hemozoin ([2]; 2x IC50, 32 h, Mean): 87.00% | Hb Fe (fg/troph) ([2]; 2x IC50, 32 h, Mean): 1.98 fg/troph | Heme Fe (fg/troph) ([2]; 2x IC50, 32 h, Mean): 5.58 fg/troph | Hemozoin Fe (fg/troph) ([2]; 2x IC50, 32 h, Mean): 48.43 fg/troph | Total Fe (fg/troph) ([2]; 2x IC50, 32 h, Mean): 56.59 fg/troph | %Hb [2, 7]: 3.5841% and 3.0885% and 3.9396% and 3.4358% | %Heme [2, 7]: 10.5037% and 10.6360% and 8.0922% | %Hemozoin [2, 7]: 85.9123% and 86.2755% and 87.3313% and 88.4720% | Hb Fe (fg/troph) [2, 7]: 2.0351 fg/troph and 1.7333 fg/troph and 2.1697 fg/troph and 2.0058 fg/troph | Heme Fe (fg/troph) [2, 7]: 5.9641 fg/troph and 5.9691 fg/troph and 4.8074 fg/troph and 4.7243 fg/troph | Hemozoin Fe (fg/troph) [2, 7]: 48.7818 fg/troph and 48.4187 fg/troph and 48.0959 fg/troph and 51.6502 fg/troph | Total Fe (fg/troph) [2, 7]: 56.78 fg/troph and 56.12 fg/troph and 55.07 fg/troph and 58.38 fg/troph | %Hb ([2]; 2.5x IC50, 32 h, Mean): 4.73% | %Heme ([2]; 2.5x IC50, 32 h, Mean): 10.26% | %Hemozoin ([2]; 2.5x IC50, 32 h, Mean): 85.01% | Hb Fe (fg/troph) ([2]; 2.5x IC50, 32 h, Mean): 2.72 fg/troph | Heme Fe (fg/troph) ([2]; 2.5x IC50, 32 h, Mean): 5.95 fg/troph | Hemozoin Fe (fg/troph) ([2]; 2.5x IC50, 32 h, Mean): 47.56 fg/troph | Total Fe (fg/troph) ([2]; 2.5x IC50, 32 h, Mean): 56.58 fg/troph | %Hb [2, 8]: 4.8862% and 4.8721% and 4.7430% and 4.4317% | %Heme [2, 8]: 10.8743% and 11.0956% | %Hemozoin [2, 8]: 84.2395% and 85.3413% and 84.1614% and 86.2810% | Hb Fe (fg/troph) [2, 8]: 2.8007 fg/troph and 2.7933 fg/troph and 2.5619 fg/troph and 2.5547 fg/troph | Heme Fe (fg/troph) [2, 8]: 6.2331 fg/troph and 5.6110 fg/troph and 5.9933 fg/troph and 5.3538 fg/troph | Hemozoin Fe (fg/troph) [2, 8]: 48.2856 fg/troph and 48.9290 fg/troph and 45.4601 fg/troph and 49.7378 fg/troph | Total Fe (fg/troph) [2, 8]: 57.32 fg/troph and 57.33 fg/troph and 54.02 fg/troph and 57.65 fg/troph | %Hb ([2]; 3x IC50, 32 h, Mean): 3.75% | %Heme ([2]; 3x IC50, 32 h, Mean): 14.98% | %Hemozoin ([2]; 3x IC50, 32 h, Mean): 81.27% | Hb Fe (fg/troph) ([2]; 3x IC50, 32 h, Mean): 2.01 fg/troph | Heme Fe (fg/troph) ([2]; 3x IC50, 32 h, Mean): 8.01 fg/troph | Hemozoin Fe (fg/troph) ([2]; 3x IC50, 32 h, Mean): 43.26 fg/troph | Total Fe (fg/troph) ([2]; 3x IC50, 32 h, Mean): 56.94 fg/troph | %Hb [2, 9]: 2.5119% and 4.3346% and 4.4230% and 3.7332% | %Heme [2, 9]: 15.7024% and 13.7857% and 15.6412% and 14.7736% | %Hemozoin [2, 9]: 81.7857% and 81.8796% and 79.9358% and 81.4933% | Hb Fe (fg/troph) [2, 9]: 1.3141 fg/troph and 2.3188 fg/troph and 2.3892 fg/troph and 2.5358 fg/troph | Heme Fe (fg/troph) [2, 9]: 8.2149 fg/troph and 7.3747 fg/troph and 8.4490 fg/troph and 10.0350 fg/troph | Hemozoin Fe (fg/troph) [2, 9]: 42.7874 fg/troph and 43.8015 fg/troph and 43.1792 fg/troph and 55.3544 fg/troph | Total Fe (fg/troph) [2, 9]: 52.32 fg/troph and 53.50 fg/troph and 54.02 fg/troph and 67.93 fg/troph
